Earlier results, collected in patent US20240279190A1, “COMPOUNDS FOR MODULATING PLATELET-TYPE 12-(S)-LIPOXYGENASE AND METHODS OF USE FOR SAME” (The Regents of The University of California, priority 2021, published 2024).

System: human islets
Settings: 10 μM; different batches of human islets; cited from earlier work

Substance: ML355
- GSIS effect in a similar experiment: comparable results were observed
